In paper PMC11864979, “First-in-class ultralong-target-residence-time p38α inhibitors as a mitosis-targeted therapy for colorectal cancer” (Nature Cancer, 2025):
Values joined by “and” are separate entries in the source; they are usually repeats but may differ in a detail not shown here. Equal values may be shown once.

Key:
[1] = test system: PDO2; assay: cell viability in patient-derived CRC organoids PDO2; type: cell-based, human; conditions: Fig. 3c, replicates
Experimental: (§1) For in vitro treatment studies, organoids were mechanically dissociated and digested using TrypLE supplemented with 100 µg ml^−1 DNaseI and 10.5 µM Y-27632 dihydrochloride (Invitrogen) at 37 °C. A total of 1,000–2,000 single cells were plated per well in white 96-well plates (Greiner) in culture medium containing 10% GFR Matrigel or Cultrex BME. The treatment with doxycycline (5 µg ml^−1), pharmacological inhibitors or corresponding volumes of DMSO was started 24 h after plating. Doxycycline was obtained from Sigma-Aldrich. […] Cell viability was measured by means of CellTiter-Glo 3D or CellTiter-Glo 2.0 reagent (Promega) according to the manufacturers’ instructions and the Infinite M Plex reader (Tecan, i-control version 3.9.1 software). Results were normalized to vehicle (DMSO) or to shNC. For cell-doubling assays, the cell number was quantified at the corresponding time points using Guava EasyCyte flow cytometer (Luminex, CytoSoft v5.2 software).

[2] = in vivo pharmacokinetic studies in mice (plasma, LC-MS); parameters: species or system mouse
Experimental: No mice were excluded during treatment studies. […] GFP imaging of tumors was performed using a Hamamatsu imaging system. For quantification of compounds in the murine plasma, 20 μl of tail-vein blood was diluted with 80 μl of heparin solution, before 200 μl of ice-cold acetonitrile with a defined internal standard was added. The samples were sonicated and centrifuged and the supernatant was subjected to liquid chromatography-mass spectrometry quantification. Full blood analyses were performed with the Sysmex KX-21N hematology analyzer.

[3] = test system: KAP^2D cells; assay: annexin V apoptosis analysis in KAP^2D cells; type: cell-based, mouse; conditions: for Annexin V+ cells: Fig. 5a
Experimental: Apoptosis was analyzed with the FITC annexin V apoptosis detection kit (Biolegend). Both measurements were performed with FACS Canto II (BD) and physical parameters were used to exclude cell debris and cell doublets.

[4] = test system: PDO13; assay: cell viability in patient-derived CRC organoids PDO13; type: cell-based, human
Experimental: as §1

[5] = test system: KMP organoids; assay: cell viability in KMP organoids; type: cell-based, mouse
Experimental: (§2) A total of 1,000–2,000 single cells were plated per well in white 96-well plates (Greiner) in culture medium containing 10% GFR Matrigel or Cultrex BME. The treatment with doxycycline (5 µg ml^−1), pharmacological inhibitors or corresponding volumes of DMSO was started 24 h after plating. Doxycycline was obtained from Sigma-Aldrich. […] Results were normalized to vehicle (DMSO) or to shNC. For cell-doubling assays, the cell number was quantified at the corresponding time points using Guava EasyCyte flow cytometer (Luminex, CytoSoft v5.2 software).

[6] = test system: PDO1; assay: cell viability in patient-derived CRC organoids PDO1; type: cell-based, human; conditions: Fig. 3b, replicates
Experimental: as §1

[7] = test system: BAP organoids; assay: cell viability in BAP organoids; type: cell-based, mouse
Experimental: as §2

[8] = test system: PDO3; assay: cell viability in patient-derived CRC organoids PDO3; type: cell-based, human; conditions: Fig. 3d, replicates
Experimental: as §1

[9] = test system: KAP^2D cells; assay: quantification of viable KAP^2D cells over time (cell-doubling assay); type: cell-based, mouse; conditions: Fig. 4i
Experimental: The treatment with doxycycline (5 µg ml^−1), pharmacological inhibitors or corresponding volumes of DMSO was started 24 h after plating. […] Cell viability was measured by means of CellTiter-Glo 3D or CellTiter-Glo 2.0 reagent (Promega) according to the manufacturers’ instructions and the Infinite M Plex reader (Tecan, i-control version 3.9.1 software). Results were normalized to vehicle (DMSO) or to shNC. For cell-doubling assays, the cell number was quantified at the corresponding time points using Guava EasyCyte flow cytometer (Luminex, CytoSoft v5.2 software).

[10] = test system: HCT-15; assay: cell viability in human CRC cell line HCT-15; type: cell-based
Experimental: To generate KAP^2D cells, KAP organoids were isolated from Matrigel, fragmented by mechanical dissociation and plated without any extracellular matrix on common cell culture dishes. Phoenix-Eco packaging cells (CRL-3214), HCT-15 (CCL-225), HCT 116 (CCL-247), COLO 205 (CCL-222), LS 174T (CL-188), RKO (CRL-2577) and HT-29 (HTB-38) were obtained from the American Type Culture Collection. The cells were cultured at 37 °C and 7% CO2 with RPMI (KAP^2D cells) or DMEM (other cell lines), supplemented with 10% FBS and penicillin–streptomycin. KAP^2D cells were authenticated using PCR (Kras locus and Trp53 locus). Phoenix-Eco packaging cells and HCT-15, HCT 116, COLO 205, LS 174T, RKO and HT-29 cells were authenticated by the provider using short tandem repeat profiling. No commonly misidentified cell lines were used. Mycoplasma contamination was excluded by a PCR-based analysis.
as §1

[11] = mouse, plasma, oral administration in mice, 20 mg kg^−1
[12] = oral administration in mice, 20 mg kg^−1

CNC(=O)c1ccc2c(c1)C(=O)c1ccc(Nc3ccc(F)c(NC(=O)C4CC4)c3)cc1CC2 [Compound 2015]
Cell viability (%) ([1]; 0,5 µM, 5 µM): 17.11% and 9.01% and 7.93%
Cell viability (%) ([1]; 0,25 µM): 30.33% and 26.25%
Cell viability (%) ([1]; 1 µM): 8.07% and 8.23%
viability at 1 µM ([1]; Homo sapiens, 1 µM): 10.5%
Plasma concentration ([2]; 0 min of treatment, individual animals): 0.00 µM
Plasma concentration ([2]; 45 min of treatment, individual animals): 20.46 µM and 14.73 µM
Plasma concentration ([2]; 90 min of treatment, individual animals): 17.75 µM and 16.83 µM
Plasma concentration ([2]; 180 min of treatment, individual animals): 13.04 µM and 13.78 µM
Plasma concentration ([2]; 480 min of treatment, individual animals): 2.27 µM and 3.36 µM
Plasma concentration ([2]; 1440 min of treatment, individual animals): 0.20 µM and 0.04 µM (2×)
concentration at 0 min ([2]; mouse, plasma, oral, 20 mg kg^−1, 0 min of treatment, individual animals): 0 nM
concentration at 45 min ([2]; mouse, plasma, oral, 20 mg kg^−1, 45 min of treatment, individual animals): 26.8 µM
concentration at 90 min ([2]; mouse, plasma, oral, 20 mg kg^−1, 90 min of treatment, individual animals): 25.2 µM
concentration at 180 min ([2]; mouse, plasma, oral, 20 mg kg^−1, 180 min of treatment, individual animals): 17 µM
concentration at 480 min ([2]; mouse, plasma, oral, 20 mg kg^−1, 480 min of treatment, individual animals): 4.26 µM
AUC [2, 11]: 121 µM·h
half-life [2, 11]: 2.68 h
C^max [2, 12]: 20.7 µM
t^max [2, 12]: 45 min
Annexin V+ cells ([3]; 1 d of treatment): 23.30% and 25.40% and 24.30% and 22.30% and 24.90% and 20.90%
Annexin V+ cells ([3]; 2 d of treatment): 41.00% and 47.90% and 34.70% and 29.60% and 31.10% and 30.20%
Annexin V+ cells ([3]; 3 d of treatment): 53.10% and 40.00% and 40.60% and 42.30% and 39.50% and 37.30%
Annexin V+ cells ([3]; 4 d of treatment): 66.80% and 62.60% and 62.90% and 52.60% and 53.50% and 56.70%
annexin V positivity (in words) ([3]; KAP^2D, after 3–4 days of treatment): strongly increased annexin V positivity
viability at 0.5 µM ([4]; Homo sapiens, 96 h, PDO13, 0.5 µM, 4 d, read-out: Cell viability (%)): 25.4%
viability at 1 µM ([4]; Homo sapiens, 96 h, PDO13, 1 µM, 4 days, read-out: Cell viability (%)): 27.4%
Cell viability (%) ([4]; PDO13, 0.5 µM, 4 d, 0.5 µM): 27.09% and 31.57%
Cell viability (%) ([4]; PDO13, 1 µM, 4 days, 1 µM): 24.42% and 28.18%
therapeutic effect in KMP organoids (in words) ([5]; 4 days): increased responsiveness
Cell viability (%) ([5]; Fig. 2i, 0,5 µM, replicates, 5 µM): 17.63% and 7.81% and 29.91%
Cell viability (%) ([5]; Fig. 2i, 0,25 µM, replicates): 27.91% and 21.06%
Cell viability (%) ([5]; Fig. 2i, 1 µM, replicates): 17.15% and 26.00%
viability at 1 µM ([5]; Mus musculus, Fig. 2i, 1 µM, replicates): 27.8%
Cell viability (%) ([6]; 0.5 µM): 8.84% and 9.77%
Cell viability (%) ([6]; 1 µM): 9.82% and 5.19%
viability at 0.5 µM ([6]; Homo sapiens, 0.5 µM): 10.1%
viability at 1 µM ([6]; Homo sapiens, 1 µM): 7.92%
therapeutic effect in BAP organoids (in words) ([7]; 4 days): increased responsiveness
Cell viability (%) ([7]; Fig. 2j, 0,5 µM, replicates, 5 µM): 18.53% and 25.34%
Cell viability (%) ([7]; Fig. 2j, 0,25 µM, replicates): 71.10% and 78.07% and 119.22%
Cell viability (%) ([7]; Fig. 2j, 1 µM, replicates): 28.06% and 32.78%
viability at 5 µM ([7]; Mus musculus, Fig. 2j, 0,5 µM, replicates): 21.1%
viability at 1 µM ([7]; Mus musculus, Fig. 2j, 1 µM, replicates): 29.7%
Cell viability (%) ([8]; 0,5 µM, 5 µM): 69.11% and 51.45%
Cell viability (%) ([8]; 0,25 µM, 25 µM): 56.63% and 78.13% and 87.76%
Cell viability (%) ([8]; 1 µM): 56.28% and 48.78%
viability at 5 µM ([8]; Homo sapiens, 72 h, 0,5 µM): 50.1%
viability at 1 µM ([8]; Homo sapiens, 72 h, 1 µM): 53%
Number of cells ([9]; 0 h of treatment): 41307.05 and 44263.95 and 43595.63 and 48502.24 and 40389.64
Number of cells ([9]; 12 h of treatment): 56623.49 and 67064.09 and 57491.63 and 61648.82 and 68603.21 and 63323.28
Number of cells ([9]; 24 h of treatment): 66705.14 and 74668.97 and 68938.05 and 94046.77 and 77517.08 and 74107.42
Number of cells ([9]; 36 h of treatment): 95730.63 and 106064.51 and 93579.45 and 106339.60 and 110499.20 and 87144.95
Number of cells ([9]; 48 h of treatment): 89649.37 and 121264.28 and 95171.59 and 108694.60 and 121883.40 and 116976.50
Number of cells ([9]; 60 h of treatment): 136203.08 and 127468.86 and 129997.76 and 163066.30 and 164108.30 and 135189.10
HCT-15 Cell viability (%) ([10]; 0.0137 µM, 4 d): 103.10% and 103.13% and 91.18% and 87.03% and 85.56%
HCT-15 Cell viability (%) ([10]; 0.0412 µM, 4 d): 84.86% and 83.29% and 102.50% and 98.30% and 96.97%
HCT-15 Cell viability (%) ([10]; 0.1235 µM, 4 d): 82.55% and 82.85% and 86.50% and 79.01% and 79.10%
HCT-15 Cell viability (%) ([10]; 0.3704 µM, 4 d): 32.71% and 35.41% and 27.58% and 24.60% and 25.76%
HCT-15 Cell viability (%) ([10]; 1.1111 µM, 4 d): 27.21% and 26.38% and 23.73% and 21.02% and 21.11%
HCT-15 Cell viability (%) ([10]; 3.3333 µM, 4 d): 22.84% and 23.64% and 17.67% and 16.95% and 16.80%
HCT-15 Cell viability (%) ([10]; 10.0000 µM, 4 d): 23.68% and 23.79% and 17.32% and 16.59% and 17.19%
IC50 ([10]; Homo sapiens, 96 h, HCT-15, 4 d of treatment): 182 nM
viability at 0.0137 µM ([10]; Homo sapiens, HCT-15, 96 h, 0.0137 µM, 4 d, read-out: HCT-15 Cell viability (%)): 103%
viability at 0.0412 µM ([10]; Homo sapiens, HCT-15, 96 h, 0.0412 µM, 4 d, read-out: HCT-15 Cell viability (%)): 89.2%
viability at 0.1235 µM ([10]; Homo sapiens, HCT-15, 96 h, 0.1235 µM, 4 d, read-out: HCT-15 Cell viability (%)): 85.9%
viability at 0.3704 µM ([10]; Homo sapiens, HCT-15, 96 h, 0.3704 µM, 4 d, read-out: HCT-15 Cell viability (%)): 23.5%
viability at 1.1111 µM ([10]; Homo sapiens, HCT-15, 96 h, 1.1111 µM, 4 d, read-out: HCT-15 Cell viability (%)): 31.6%
viability at 3.3333 µM ([10]; Homo sapiens, HCT-15, 96 h, 3.3333 µM, 4 d, read-out: HCT-15 Cell viability (%)): 23.9%
viability at 10 µM ([10]; Homo sapiens, HCT-15, 96 h, 10.0000 µM, 4 d, read-out: HCT-15 Cell viability (%)): 24.1%
